Like-named read-outs stand apart in the source and are kept apart here.
Key:
Rho-kinase [1] = experiment: inhibition of the binding of Rho-kinase to anti-Rho-kinase antibody-immobilized plate; design: species or system bovine
Method: Fifty μl of the dilution of the rabbit anti-goat IgG/Fc (Nippon Chemi-Con Corp.) in PBS(−) was pipetted into Immunoplate II (Nunc, 442404, High binding capacity) or a fluorescence/luminescence solid assay plate (COSTAR, 3922 white). After allowed to stand for 1.5 hours at room temperature, the solution was removed, and 200 μl of blocking solution in which Block Ace (DAINIPPON PHARMACEUTICAL) UK-B25 was diluted four times with PBS(−)) was added into the plate, followed by stirring the solution therein. The plate was allowed to stand for additional 1.5 hours at room temperature, washed three times with 200 μl of PBST (0.05% Tween20/PBS(−)), and added with a 0.1 μg/50 μl solution of anti-Rho-kinase antibody in PBS(−). After allowed to stand for additional 1.5 hours at room temperature, the plate was washed three times with 200 μl of PBST. Into the plate was placed 50 μl of 1.5 mg/ml bovine brain lysates, and the resultant plate was allowed to stand overnight at 4° C. This was washed twice with 200 μl of PBST, and once with 200 μl of PBS(−) to provide an immobilized plate.
Various concentrations of the antigen peptide used to prepare the anti-Rho-kinase antibody were supplemented to the bovine brain extract, and then Rho-kinase in the extract was immobilized onto the plate under the optimal conditions as found in Example 5. […]

ROKa/ROK-II, active Cat = target: T1, ROKa/ROK-II, active Cat (Rattus norvegicus, UniProt Q62868); experiment: phosphorylation assay with ROKa/ROK-II, active Cat (Upstate) under a similar condition; type: biochemical
T1 construct: purchased Upstate
Method: (§1) ATP/30 μl. […] The reaction time was four hours.
(§2) SPA Multiscreen method was used for the estimation of the plate.

Rho-kinase [2] = target: T2, Rho-kinase (Bos taurus, UniProt Q28021); experiment: antibody plate assay: Rho-kinase immobilized from bovine brain extract, phosphorylation of Histone HF2A; type: biochemical; conditions: Histone HF2A substrate, [33P]ATP, reaction time four hours
T2 construct: thus detecting the band of Rho-kinase at around 160 kDa; tissue Shiraimatsu; host or cells: bovine brain (cerebral gray matter) extract
Method: After allowed to stand for 1.5 hours at room temperature, the solution was removed, and 200 μl of blocking solution in which Block Ace (DAINIPPON PHARMACEUTICAL) UK-B25 was diluted four times with PBS(−)) was added into the plate, followed by stirring the solution therein. The plate was allowed to stand for additional 1.5 hours at room temperature, washed three times with 200 μl of PBST (0.05% Tween20/PBS(−)), and added with a 0.1 μg/50 μl solution of anti-Rho-kinase antibody in PBS(−).
as §1, §2
The inhibitory activity of these inhibitors was determined based on the radioactivity showing the phosphorylation that was detected in the antibody plate assay system, and compared to those previously reported, so that the plate was estimated in terms of the usefulness in a screening system for discovering inhibitors.

Rho-kinase [3] = conditions: read-out: Ki value; cited from earlier work

T1 sequence (Q62868 11-552 limits assumed): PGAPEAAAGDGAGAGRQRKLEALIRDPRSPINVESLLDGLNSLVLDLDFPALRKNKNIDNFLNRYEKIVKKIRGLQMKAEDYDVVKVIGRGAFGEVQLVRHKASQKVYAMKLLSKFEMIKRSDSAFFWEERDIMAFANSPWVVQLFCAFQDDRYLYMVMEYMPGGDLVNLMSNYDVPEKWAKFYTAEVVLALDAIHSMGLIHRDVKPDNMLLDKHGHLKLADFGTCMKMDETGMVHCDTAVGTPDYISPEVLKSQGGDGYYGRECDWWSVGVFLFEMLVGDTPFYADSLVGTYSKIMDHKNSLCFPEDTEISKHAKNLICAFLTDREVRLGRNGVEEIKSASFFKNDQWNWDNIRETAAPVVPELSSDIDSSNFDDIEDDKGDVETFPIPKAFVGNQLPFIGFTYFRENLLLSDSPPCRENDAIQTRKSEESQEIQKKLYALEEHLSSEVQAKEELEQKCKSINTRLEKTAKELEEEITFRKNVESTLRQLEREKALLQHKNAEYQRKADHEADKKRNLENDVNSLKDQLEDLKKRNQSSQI
T2 sequence (Q28021 whole entry): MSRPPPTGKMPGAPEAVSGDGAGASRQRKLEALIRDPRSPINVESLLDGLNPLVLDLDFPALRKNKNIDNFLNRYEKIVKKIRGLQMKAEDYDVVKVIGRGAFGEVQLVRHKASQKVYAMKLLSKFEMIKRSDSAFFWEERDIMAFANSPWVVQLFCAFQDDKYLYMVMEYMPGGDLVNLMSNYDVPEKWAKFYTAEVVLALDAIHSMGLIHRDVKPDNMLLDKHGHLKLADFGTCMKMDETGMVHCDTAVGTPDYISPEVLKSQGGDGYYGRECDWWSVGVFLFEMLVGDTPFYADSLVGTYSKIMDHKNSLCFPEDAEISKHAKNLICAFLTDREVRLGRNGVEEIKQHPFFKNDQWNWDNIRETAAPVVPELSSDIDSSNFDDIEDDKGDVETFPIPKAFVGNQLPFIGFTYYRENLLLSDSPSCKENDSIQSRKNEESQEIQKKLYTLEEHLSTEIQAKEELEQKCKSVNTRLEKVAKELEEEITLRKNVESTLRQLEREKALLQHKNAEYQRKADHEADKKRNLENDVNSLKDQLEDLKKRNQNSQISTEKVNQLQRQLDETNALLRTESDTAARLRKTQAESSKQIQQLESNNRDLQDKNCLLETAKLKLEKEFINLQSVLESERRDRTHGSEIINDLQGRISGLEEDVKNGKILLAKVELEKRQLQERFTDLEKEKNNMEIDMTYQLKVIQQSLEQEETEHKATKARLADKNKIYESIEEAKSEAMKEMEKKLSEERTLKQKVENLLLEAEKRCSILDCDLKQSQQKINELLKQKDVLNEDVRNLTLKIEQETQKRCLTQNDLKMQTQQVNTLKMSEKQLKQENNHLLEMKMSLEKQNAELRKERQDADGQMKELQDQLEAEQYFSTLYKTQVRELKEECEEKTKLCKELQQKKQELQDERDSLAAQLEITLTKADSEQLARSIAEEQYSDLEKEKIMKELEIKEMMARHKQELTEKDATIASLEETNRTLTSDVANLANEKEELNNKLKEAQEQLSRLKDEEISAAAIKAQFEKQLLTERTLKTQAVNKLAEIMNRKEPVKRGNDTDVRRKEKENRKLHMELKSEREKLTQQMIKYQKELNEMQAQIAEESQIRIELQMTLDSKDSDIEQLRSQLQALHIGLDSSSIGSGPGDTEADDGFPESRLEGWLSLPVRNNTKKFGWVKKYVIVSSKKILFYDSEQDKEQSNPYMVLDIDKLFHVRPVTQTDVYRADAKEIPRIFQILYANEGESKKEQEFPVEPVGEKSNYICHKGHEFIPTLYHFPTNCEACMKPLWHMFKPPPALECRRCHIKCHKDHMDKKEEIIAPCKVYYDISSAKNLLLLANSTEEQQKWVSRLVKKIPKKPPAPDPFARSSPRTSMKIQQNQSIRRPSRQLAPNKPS

IQQNQSIRRPSRQLAPNKPS [antigen peptide, 20 amino acid C-terminal partial peptide of Rho-kinase used to prepare the anti-Rho-kinase antibody]
inhibition of the immobilization of Rho-kinase (Rho-kinase [1]; 3.5 μM of the peptide): ~100% | IC50 (Rho-kinase [1]; peptide supplemented to bovine brain extract, read-out: IC50 value, inhibition of immobilization of Rho-kinase): 350 nM

COc1ccc2c(c[n+](C)c3c4cc5c(cc4ccc23)OCO5)c1OC [chelerythrine]
IC50 (ROKa/ROK-II, active Cat; similar assay condition, read-out: IC50 value, ROKa/ROK-II active Cat): 11000 nM | IC50 (Rho-kinase [2]; read-out: IC50 value, bovine brain): 20000 nM

C[C@@H](N)[C@H]1CC[C@H](C(=O)Nc2ccncc2)CC1 [Y-27632]
IC50 (ROKa/ROK-II, active Cat): 790 nM | IC50 (Rho-kinase [2]; IC50 value, bovine brain): 350 nM | Ki (Rho-kinase [3]): 140 nM
